As usually defined, the inhibition is the relative decrease from the control value, in per cent. For orientation: viability means a read-out of living cells in per cent, often relative to untreated cells.

SMILES strings stand for the structures.

Results on seven compounds are retold here after patent US20170129916A1, “NOVEL BETULINIC PROLINE IMIDAZOLE DERIVATIVES AS HIV INHIBITORS” (HETERO RESEARCH FOUNDATION, priority 2014, published 2017).

Data set [1] relates to HIV-1 strains, for e.g., 92HT599. The data set can be described thus: Antiviral activity: p24 estimation in MT-2 cells infected with HIV-1. In kind it is cell-based. Conditions: Human immunodeficiency virus 1, MT2, MT-2 cells infected with HIV-1, p24, ~96 hours. A digest of the protocol:
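MT-2 cells infected with HIV-1 (e.g. 92HT599), plated at 30,000 cells/well with compound (DMSO ≤1%) and incubated ~96 h. Supernatant p24 quantified by kit; percent inhibition relative to vehicle controls.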

Data set [2] can be described thus: Single dose oral pharmacokinetic study. In kind it is in vivo. The settings on record: mouse, mice, 30 mg/kg, plasma. A digest of the protocol:
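Rats or mice received 30 mg/kg orally at 10 ml/kg dose volume. Retro-orbital blood was taken into K3 EDTA at defined intervals under light ether anesthesia and centrifuged to plasma. Plasma levels were measured by LC-MS-MS.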

Procedure for in vitro: On day 1 calculate the number of cells required for the assay and seed 3×10^4 cells in 200 μl per well. Weigh the compound and dissolve it in DMSO to get 10 mM stock which is further diluted to 3 mM and 1 mM. The drugs from these stocks were added to plate to get final concentration of 100 μM, 30 μM and 10 μM. […] Incubate for 4 days in 5% CO2 incubator at 37° C. On day 4, 100 μl of medium was removed from each well without disturbing the cells. Add 10 μl of MTT reagent and incubate for 4 hours at 5% CO2 incubator at 37° C. for formation of crystals. Add 200 μl of 0.1N acidic isopropanol to dissolve the crystals and read the plate at 590 nm.

`C=C(C)[C@@H]1CC[C@]2(C(=O)N3CCC[C@H]3c3ncc(-c4ccc(C)c(F)c4)[nH]3)CC[C@]3(C)[C@H](CC[C@@H]4[C@@]5(C)CC[C@H](OC(=O)[C@H]6C[C@@H](C(=O)O)C6(C)C)C(C)(C)[C@@H]5CC[C@]43C)[C@@H]12` [Compound 2, (1R,3S)-3-((((1R,3aS,5aR,5 bR,7aR,9S,11aR,11bR,13aR,13bR)-3a-((S)-2-(5-(3-fluoro-4-methylphenyl)-1H-imidazol-2-yl)pyrrolidine-1-carbonyl)-5a,5b,8,8,11a-pentamethyl-1-(prop-1-en-2-yl)icosahydro-1H-cyclopenta[a]chrysen-9-yl)oxy)carbonyl)-2,2-dimethylcyclobutane-1-carboxylic acid]: in data set [1], the inhibition at 0.1 µM was 0% and the inhibition at 1 µM was 97%. In the data set “in vitro”, this compound came in with a viability at 4 days, 10 μM of 64%; a viability at 4 days, 30 μM of 31%; a viability at 4 days, 100 μM of 5%.
Take `C=C(C)[C@@H]1CC[C@]2(C(=O)N3CCC[C@H]3c3ncc(-c4ccc(OCC)cc4)[nH]3)CC[C@]3(C)[C@H](CC[C@@H]4[C@@]5(C)CC[C@H](OC(=O)[C@H]6C[C@@H](C(=O)O)C6(C)C)C(C)(C)[C@@H]5CC[C@]43C)[C@@H]12` [Compound 5, (1R,3S)-3-((((1R,3aS,5aR,5bR,7aR,9S,11aR,11bR,13aR,13bR)-3a-((S)-2-(5-(4-ethoxyphenyl)-1H-imidazol-2-yl)pyrrolidine-1-carbonyl)-5a,5b,8,8,11a-pentamethyl-1-(prop-1-en-2-yl)icosahydro-1H-cyclopenta[a]chrysen-9-yl)oxy)carbonyl)-2,2-dimethylcyclobutane-1-carboxylic acid]: in data set [1], the inhibition at 0.1 µM was 0% and the inhibition at 1 µM is 100%. Moreover, in “in vitro”, the viability at 4 days, 10 μM is 100%; the viability at 4 days, 30 μM was determined as 100%; the viability at 4 days, 100 μM worked out at 98%.
As to `C=C(C)[C@@H]1CC[C@]2(C(=O)N3CCC[C@H]3c3nc(-c4ccc(OC)c(F)c4)c[nH]3)CC[C@]3(C)[C@H](CC[C@@H]4[C@@]5(C)CC[C@H](OC(=O)[C@H]6C[C@@H](C(=O)O)C6(C)C)C(C)(C)[C@@H]5CC[C@]43C)[C@@H]12` [Compound 25, (1R,3S)-3-((((1R,3aS,5aR,5bR,7aR,9S,11aR,11bR,13aR,13bR)-3a-((S)-2-(4-(3-fluoro-4-methoxyphenyl)-1H-imidazol-2-yl)pyrrolidine-1-carbonyl)-5a,5b,8,8,11a-pentamethyl-1-(prop-1-en-2-yl)icosahydro-1H-cyclopenta[a]chrysen-9-yl)oxy)carbonyl)-2,2-dimethylcyclobutane-1-carboxylic acid], in data set [1], the inhibition at 0.1 µM was 89% and the inhibition at 1 µM was 99%. Besides, in the data set “in vitro”, the viability at 4 days, 10 μM stood at 65%; the viability at 4 days, 30 μM is 32%; the viability at 4 days, 100 μM was 11%.
In the case of `C=C(C)[C@@H]1CC[C@]2(C(=O)N3CCC[C@H]3c3ncc(-c4ccc(C)c(F)c4)[nH]3)CC[C@]3(C)[C@H](CC[C@@H]4[C@@]5(C)CC[C@H](OC(=O)CC(C)(C)C(=O)O)C(C)(C)[C@@H]5CC[C@]43C)[C@@H]12` [Compound 40], in data set [1], the inhibition at 0.1 µM was 29% and the inhibition at 1 µM is 99%. Besides, in “in vitro”, the viability at 4 days, 10 μM stood at 80%; the viability at 4 days, 30 μM was determined as 48%; the viability at 4 days, 100 μM is 25%.
For the compound `CC(C)(CC(=O)O[C@H]1CC[C@]2(C)[C@H]3CC[C@@H]4[C@H]5[C@H](C(C)(O)CO)CC[C@]5(C(=O)N5CCC[C@@H]5c5nc(-c6ccccc6)no5)CC[C@@]4(C)[C@]3(C)CC[C@H]2C1(C)C)C(=O)O` (stereo partly drawn) [Compound 42, 4-(((1R,3aS,5aR,5bR,7aR,9S,11aR,11bR,13aR,13bS)-1-(1,2-dihydroxypropan-2-yl)-5a,5b,8,8,11a-pentamethyl-3a-((R)-2-(3-phenyl-1,2,4-oxadiazol-5-yl)pyrrolidine-1-carbonyl)icosahydro-1H-cyclopenta[a]chrysen-9-yl)oxy)-2,2-dimethyl-4-oxobutanoic acid], in data set [1], the inhibition at 0.1 µM was 63% and the inhibition at 1 µM is 73%. For the same compound, in the data set “in vitro”, the viability at 4 days, 0.1 nM worked out at 94% and the viability at 4 days, 1 nM is 94%.
Consider `COCCO[C@@H]1C[C@@H](c2nc(-c3cccc(F)c3)c[nH]2)N(C(=O)[C@]23CC[C@@H](C4(C)CC4)[C@@H]2[C@H]2CC[C@@H]4[C@@]5(C)CC[C@H](OC(=O)[C@H]6C[C@@H](C(=O)O)C6(C)C)C(C)(C)[C@@H]5CC[C@@]4(C)[C@]2(C)CC3)C1` [Compound 54, (1R,3S)-3-((((1R,3aS,5aR,5bR,7aR,9S,11aR,11bR,13aR,13bR)-3a-((2S,4R)-2-(4-(3-fluorophenyl)-1H-imidazol-2-yl)-4-(2-methoxyethoxy)pyrrolidine-1-carbonyl)-5a,5b,8,8,11a-pentamethyl-1-(1-methylcyclopropyl)icosahydro-1H-cyclopenta[a]chrysen-9-yl)oxy)carbonyl)-2,2-dimethylcyclobutane-1-carboxylic acid], for which, in data set [1], the inhibition at 0.1 µM was 13% and the inhibition at 1 µM is 93%. For the same compound, in the data set “in vitro”, the viability at 4 days, 10 μM came out at 49%; the viability at 4 days, 30 μM was found to be 16%; the viability at 4 days, 100 μM is 6%.
For the compound `CC(C)(CC(=O)O)CC(=O)O[C@H]1CC[C@]2(C)[C@H]3CC[C@@H]4[C@H]5[C@H](C6(C)CC6)CC[C@]5(C(=O)N5CCC[C@H]5c5ncc(-c6ccc(F)cc6)[nH]5)CC[C@@]4(C)[C@]3(C)CC[C@H]2C1(C)C` [Compound 70, 5-(((1R,3aS,5aR,5bR,7aR,9S,11aR,11bR,13aR,13bR)-3a-((S)-2-(5-(4-fluorophenyl)-1H-imidazol-2-yl)pyrrolidine-1-carbonyl)-5a,5b,8,8,11a-pentamethyl-1-(1-methylcyclopropyl)icosahydro-1H-cyclopenta[a]chrysen-9-yl)oxy)-3,3-dimethyl-5-oxopentanoic acid], in data set [1], the inhibition at 0.1 µM was 84% and the inhibition at 1 µM was 99%. In addition, the AUC(0-t) in data set [2] (read-out: Mice oral PK @30 mg/kg AUC 0-t) came out at 172 µg·h/mL. Further, the Cmax in data set [2] (read-out: Mice oral PK @30 mg/kg Cmax) turned out to be 10000 ng/mL.
